According to ChEMBL document CHEMBL1153054, “Functionalized 3-amino-imidazo[1,2-a]pyridines: a novel class of drug-like Mycobacterium tuberculosis glutamine synthetase inhibitors” (Bioorg Med Chem Lett, 2009):

assay: Inhibition of Mycobacterium tuberculosis glutamine synthetase; settings: not given

Structure (SMILES) | IC50
Oc1ccc(-c2nc3ccc(Br)cn3c2NC2CCCC2)cc1 | ND(Insoluble)

same assay, conditions: read-out: IC50

Structure (SMILES) | IC50 [µM]
COc1ccc2nc(-c3ccc(OC)c(O)c3)c(NC3CCCC3)n2c1 | 31.3
COc1ccc(-c2nc3c(C)cc(Br)cn3c2NC2CCCC2)cc1O | 12.7
COc1ccc(-c2nc3ccc(-c4ccccc4)cn3c2NC2CCCC2)cc1O | > 50
COc1ccc(-c2nc3ccc(F)cn3c2NC2CCCC2)cc1O | > 50
Oc1cccc(-c2nc3ccc(Br)cn3c2NC2CCCC2)c1 | > 50
COc1ccc(-c2nc3ccc(I)cn3c2NC2CCCC2)cc1O | 4.8
COc1ccc(-c2nc3ccc(Oc4ccccc4)cn3c2NC2CCCC2)cc1O | > 50
COc1ccc(-c2nc3ccc(-c4ccncc4)cn3c2NC2CCCC2)cc1O | > 50
COc1ccc(-c2nc3ccc(/C=C/c4ccccc4)cn3c2NC2CCCC2)cc1O | > 50
O=[N+]([O-])c1ccc(-c2nc3ccc(Br)cn3c2NC2CCCC2)cc1O | > 50
COc1ccc(-c2nc3ccc(C(F)(F)F)cn3c2NC2CCCC2)cc1O | > 50
Brc1ccc2ncc(NC3CCCC3)n2c1 | > 50
COc1ccc(-c2nc3ccc(Br)cn3c2NC2CCCC2)cc1O | 8.8
Oc1cccc(-c2nc3ccc(Br)cn3c2NC2CCCC2)c1Cl | > 50
COc1ccc(-c2nc3ccccn3c2NC2CCCC2)cc1O | > 50
COc1ccc(-c2nc3ccc(C#N)cn3c2NC2CCCC2)cc1O | > 50

Structure (SMILES) | IC50 [µM]
COc1cccc(-c2nc3ccc(Br)cn3c2NC2CCCC2)c1 | > 50
Nc1cccc(-c2nc3ccc(Br)cn3c2NC2CCCC2)c1 | 10.1
COc1ccc(-c2nc3c(Br)cccn3c2NC2CCCC2)cc1O | 21.3
O=C(O)c1cccc(-c2nc3ccc(Br)cn3c2NC2CCCC2)c1 | 0.38
OCc1cccc(-c2nc3ccc(Br)cn3c2NC2CCCC2)c1 | 13.2
Brc1ccc2nc(-c3ccccc3)c(NC3CCCC3)n2c1 | > 50
COc1ccc(-c2nc3ccc(C)cn3c2NC2CCCC2)cc1O | > 50
Oc1ccccc1-c1nc2ccc(Br)cn2c1NC1CCCC1 | > 50
COc1cc(-c2nc3ccc(Br)cn3c2NC2CCCC2)ccc1O | > 50
COc1ccc(-c2nc3ccc(Cl)cn3c2NC2CCCC2)cc1O | 11.2
COc1ccc(-c2nc3cccc(Br)n3c2NC2CCCC2)cc1O | > 50
COc1ccc(-c2nc3ccc(CCc4ccccc4)cn3c2NC2CCCC2)cc1O | > 50
COc1ccc(-c2nc3ccc(Cc4ccccc4)cn3c2NC2CCCC2)cc1O | > 50
O=[N+]([O-])c1cccc(-c2nc3ccc(Br)cn3c2NC2CCCC2)c1 | > 50
COc1cccc(-c2nc3ccc(Br)cn3c2NC2CCCC2)c1OC | > 50
COc1ccc(-c2nc3c(Br)cc(Br)cn3c2NC2CCCC2)cc1O | > 50
